Where a SMILES comes first, the peptide text is derived from it. Bridges are numbered along the chain shown (N, C = ends). [ ]: non-standard residue; d: D form. Ahx = NCCCCCC(=O)O
Experiments:
[1] = test system: sheep red blood cells; format: cell-based
Protocol: In vitro assessment of hemolysis is important in determining the potential cytotoxicity of any material or drug that would be in contact with blood. Various protocols for determining hemolytic potential have been reported. A procedure recommended for analysis of the hemolytic potential of drug substances for RBCs using 0.1% Triton as the positive control and a 1 h incubation period was performed.
The CPPs or the vehicle (DMSO and 0.1% Triton X-100), were diluted in PBS. Washed pooled sheep red blood cells (sRBCs; Rockland, R405-0050, 10% v/v) were diluted to 2.1% in PBS. Then 190 μL of the cell suspension was added to the wells of a 96-well plate (Corning CellBIND). Solutions (10 μL) containing the linear or DE or TE cyclized forms of the CPP at 4,000 or 2,000 μM or the DMSO and PBS vehicle were added to wells with sRBCs in triplicate. As a positive control three wells were treated with 10 μL of 2% Triton X-100. The 96 well plates were incubated at 37° C. and 5% CO2 for 1 h, and then centrifugated at 1,000×g for 5 min. Supernatant (100 μL) was transferred to a new plate and then analyzed on the Epoch microtiter plate reader at 405-nm. Results are expressed as % hemolysis, which was calculated according to the following equation: % hemolysis=[(405 nm absorbance (Abs) of RBCs in the peptide solution-405 nm Abs in PBS)/(405 nm Abs in 0.1% Triton X-100-405 nm ABs in PBS]×100. Values of >25% hemolysis were defined as poor, 10-25% medium, and <10% as non-hemolytic according to recommended guidelines.

[2] = test system: activated THP-1 monocytic cells; assay: LDH release cytotoxicity, THP-1; format: cell-based, human; parameters: cytotoxicity, THP-1: unit of the concentration uncertain; settings: for cytotoxicity, THP-1: 100 (unit uncertain)
Protocol: (§1) To determine whether the CPPs were cytotoxic for human cells, the relative amount of LDH released from immortalized End1/E6E7 endocervical cells, ME 180 cervical cells and THP-1 monocytic cells was measured following 18 h treatment (FIG. 9A-C). […] The cytotoxicity of the endogenous AMP LL-37 was analyzed as a comparator.
(§2) We analyzed the levels of lactate dehydrogenase (LDH) released from dying human End1/E6E7 epithelial endocervical cells1, ME-180 epithelial cervical2, and THP-1 monocytes due to cytotoxicity from exposure to the CPP structural analogs or LL-37 using the Cyquant LDH Cytotoxicity Assay Kit (Invitrogen ThermoFisher Scientific). The THP-1 cells were activated overnight by incubation with 10 ng/ml of phorbol myristate acetate (PMA; Sigma-Aldrich). After washing, cells were trypsinized, and then 1.0×10^4 cells in 100-μL media were plated per well in 96-well plates. For the activated THP-1 and ME-180 cells, Opti-MEM (Gibco) with 1% FBS was used. For the End1/E6E7 cells Keratinocyte-Scrum Free Media (ThermoFisher Scientific) with supplements was used. After plating, the activated THP-1 cells were incubated for 4-5 h and the End1/E6E7 and ME-180-cells were incubated overnight. Next stock solutions of the CPPs or LL-37 were diluted in PBS and aliquots were added to wells to create final concentrations of 100 and 200 μM of the CPPs, or 20 and 40 μM of LL-37 in total volumes of 100 μL per well. Negative control wells were treated with vehicle only, which was 1% DMSO in media. Vehicle controls for LL-37 were wells with Opti-MEM with 1% FBS only. After adding the test reagents, plates were gently mixed and incubated at 37° C. and 5% CO2 for 18 h. Positive control wells were treated with 10 μL of the Triton X-100 Lysis Buffer provided with the Cyquant kit according to the directions of the vendor. Then the levels of LDH in supernatants were quantified using a kit (Roche, Mannheim, DE, USA) with detection on an Epoch (Biotek Instruments, Winooski, Vermont, USA) microtiter plate reader at 490 nm with 680 nm subtracted. The results were reported as the percentage of LDH released from cells treated with LL-37 or CPP relative to LDH released from control cells treated with vehicle-only.

[3] = test system: End1/E6E7 endocervical cells; assay: LDH release cytotoxicity, End1/E6E7; format: cell-based, human; parameters: cytotoxicity, End1/E6E7: unit of the concentration uncertain
Protocol: as §1, §2

[4] = test system: ME-180 cervical cells; assay: LDH release cytotoxicity, ME-180; format: cell-based, human; parameters: cytotoxicity, ME-180: unit of the concentration uncertain
Protocol: as §1, §2

[5] = test system: S. aureus strains 8325-4 and Newman; format: cell-based, Staphylococcus aureus
Protocol: The sensitivity of a Gram positive species was also tested.
N. flavescens strain 4322, N. lactamica strain 1934, and N. subflava strain 52, were available from the collections of the late Dr. Herman Schneider of the Walter Reed Army Institute of Research and of the Neisseria Repository that was formerly housed at UC Berkeley. The 8325-4 and Newman are strains of S. aureus. The latter is β-hemolytic.
S. aureus were grown overnight on Difco GC agar containing 1% BBL Isovitalex Enrichment. Using a sterile cotton swab, bacterial colonies were placed in suspension in GC broth containing 1% BBL Isovitalex. Absorbance of the bacterial suspension at 595 nm was determined to enable dilution to approximately 4×10^6 cells/mL in GC broth. Aliquots of the suspension containing 8×10^5 bacteria along with the CPPs, diluted from stock solutions in DMSO, were added in GC broth containing 1% BBL Isovitalex to make a total volume of 200 μL/well. Bacteria in GC broth with Isovitalex and 1% DMSO were added to vehicle-only control wells. […] After incubation in 5% CO2 at 37° C. for 18 h, plates were analyzed at 600-nm on an Epoch microtiter plate reader. The percentage inhibition of each sample was determined relative to the absorbance of the blank (GC broth only) and the vehicle-only controls. […] If no growth was observed on the plate, then that test concentration was determined to be inhibitory.

[6] = in vivo; cited from earlier work
[7] = test system: invasion of ME-180 cells by FA1090 1-81-S2 gonococci; assay: Invasion of human cervical epithelial cells by gonococci; format: cell-based; settings: LL-37 20 μM; moi of 5; 4 h
Protocol: Because the CPP was bactericidal for N. gonorrhoeae and, furthermore, could penetrate the bacteria, it was postulated that treatment may prevent invasion of human epithelial cells. Therefore, the effect of the CPP on the invasion of a human cervical epithelial cell line, ME-180, was tested using the AMP LL-37 for comparison. FA1090 1-81-S2 gonococci at a moi of 5 were incubated with ME-180 cells in 96-well plates with vehicle only, LL-37 (20 μM), or the CPP (100 μM) for 4 h.

In the case of `N=C(N)NCCC[C@@H]1NC(=O)CCCCCNC(=O)[C@H](CCCNC(=N)N)NC(=O)[C@H](CCCNC(=N)N)NC(=O)CCCCCNC(=O)[C@H](CCCNC(=N)N)NC(=O)[C@H](CCCNC(=N)N)NC(=O)CCCCCNC(=O)[C@H](CCCNC(=N)N)NC(=O)[C@H](CCCNC(=N)N)NC(=O)CCCCCNC(=O)[C@H](CCCNC(=N)N)NC(=O)[C@@H](N)CSSC[C@@H](C(N)=O)NC1=O` [DS cyclized CPP, CRXRRXRRXRRXRC—NH2] (H-CR[Ahx]RR[Ahx]RR[Ahx]RR[Ahx]RC-NH2; disulfide 1-14), the “hemolysis of sheep RBCs” value [1] is reported as “no hemolysis”, the “cell death (LDH), THP-1” value ([2]; 100 µM, 18 h) is reported as “significantly increased” and the “percentage of dead cells compared to the Triton X-100 treated controls, THP-1” value ([2]; 100 and 200 mM) is reported as “less than 20%”. The “percentage of dead cells compared to the Triton X-100 treated controls, End1/E6E7” value ([3]; 100 and 200 mM) was “less than 20%” and the “percentage of dead cells compared to the Triton X-100 treated controls, ME-180” value ([4]; 100 and 200 mM) was “less than 20%”.

With `N=C(N)NCCC[C@@H]1NC(=O)CSC[C@@H](C(N)=O)NC(=O)[C@H](CCCNC(=N)N)NC(=O)CCCCCNC(=O)[C@H](CCCNC(=N)N)NC(=O)[C@H](CCCNC(=N)N)NC(=O)CCCCCNC(=O)[C@H](CCCNC(=N)N)NC(=O)[C@H](CCCNC(=N)N)NC(=O)CCCCCNC(=O)[C@H](CCCNC(=N)N)NC(=O)[C@H](CCCNC(=N)N)NC(=O)CCCCCNC1=O` [TE cyclized CPP, c [RXRRXRRXRRXRC(S—)]] ({CH2CO}-R[Ahx]RR[Ahx]RR[Ahx]RR[Ahx]RC-NH2; thioether N-13) the “hemolysis of sheep RBCs” value [1] was “no hemolysis”, the “MIC for S. aureus” value [5] was > 100 µM and the “cytotoxicity compared to DS cyclized CPP, THP-1” value ([2]; 200 μM, 18 h) was “less cytotoxic compared to the DS cyclized CPP”. The “cytotoxicity compared to linear CPP, THP-1” value ([2]; 200 μM, 18 h) was “more cytotoxic”, the “cytotoxicity, THP-1” value [2] was “virtually no cytotoxicity” and the “cytotoxicity compared to DS cyclized CPP, End1/E6E7” value ([3]; 200 μM, 18 h) was “less cytotoxic compared to the DS cyclized CPP”. For the same compound, the “cytotoxicity compared to linear CPP, End1/E6E7” value ([3]; 200 μM, 18 h) was “less cytotoxic compared to the linear CPP”, the “cytotoxicity, End1/E6E7” value ([3]; 100 (unit uncertain)) was “virtually no cytotoxicity” and the “cytotoxicity compared to DS cyclized CPP, ME-180” value ([4]; 200 μM, 18 h) was “less cytotoxic compared to the DS cyclized CPP”. The “cytotoxicity, ME-180” value ([4]; 100 (unit uncertain)) was “virtually no cytotoxicity”.

In the case of `CC(=O)N[C@H](CSSC[C@H](N)C(=O)O)C(=O)N[C@H](C)C(=O)N[C@H](CCCNC(=N)N)C(=O)N[C@H](CCCNC(=N)N)C(=O)N[C@H](CCCNC(=N)N)C(=O)N[C@H](C)C(=O)N[C@H](CCCNC(=N)N)C(N)=O` [etelcalcetide], the effective half-life [6] is listed as 72 to 96 h.

In the case of `N=C(N)NCCC[C@H](NC(=O)CCCCCNC(=O)[C@H](CCCNC(=N)N)NC(=O)[C@H](CCCNC(=N)N)NC(=O)CCCCCNC(=O)[C@H](CCCNC(=N)N)NC(=O)[C@H](CCCNC(=N)N)NC(=O)CCCCCNC(=O)[C@H](CCCNC(=N)N)NC(=O)[C@H](CCCNC(=N)N)NC(=O)CCCCCNC(=O)[C@@H](N)CCCNC(=N)N)C(=O)O` [linear CPP, RXRRXRRXRRXR, reference compound] (H-R[Ahx]RR[Ahx]RR[Ahx]RR[Ahx]R-OH), the “hemolysis of sheep RBCs” value [1] is reported as “no hemolysis”, the “cytotoxicity, THP-1” value [2] is reported as “virtually no cytotoxicity” and the “cell death (LDH released), THP-1” value ([2]; 100 or 200 μM, 18 h) is reported as “not significantly increased”. For the same compound, the “cytotoxicity, End1/E6E7” value ([3]; 100 (unit uncertain)) was “virtually no cytotoxicity” and the “cytotoxicity, ME-180” value ([4]; 100 (unit uncertain)) was “virtually no cytotoxicity”.

With LL-37 [reference compound] the “invasion of ME-180 cells” value [7] was “completely inhibited invasion”, the “levels of cell death compared to the vehicle-only control, THP-1” value ([2]; 20 or 40 μM LL-37, 18 h, p<0.001) was “more than doubled” and the “LDH levels, End1/E6E7” value ([3]; LL-37 20 µM, 18 h) was “more than doubled”. For the same compound, the “cytotoxicity, End1/E6E7” value ([3]; LL-37 20 and 40 mM) was “significant cytotoxicity”, the “LDH levels, ME-180” value ([4]; LL-37 20 µM, 18 h) was “more than doubled” and the “cytotoxicity, ME-180” value ([4]; LL-37 20 and 40 mM) was “significant cytotoxicity”.
